We go through 21 compounds from patent US8722671B2, “Isoquinoline derivatives” (Sanofi, priority 2005, dated 2014).

The assay has as its target T1, ROCKII or ROKα (Homo sapiens, UniProt O75116).
T1 construct: purchased Upstate 14-451
Put plainly: Determination of Rho kinase inhibition (33P-ATP Streptavidin Flash Plate assay). Type of assay: biochemical. Particulars: ATP 40 μM, activity denoted as pIC50 class. Here is the method:
Determination of Rho Kinase Inhibition
To measure Rho-kinase inhibition, IC50 values were determined according to the following protocol:
Buffer: 25 mM Tris pH7.5; 0.02% BSA; 5% Glycerol; 0.008% Triton X100; 2% DMSO, 1 mM DTT; 1 mM MgCl2; 0.5 μCi/well γ^33P ATP
Enzyme: ROCKII or ROKα) (Upstate, Catalog #14-451 Lot #24880U) 0.1 ng/μl
Final concentration of ATP in reaction mixture 40 μM
Biotinylated substrate, diluted to 0.25 μM with buffer described above (without ATP)
• 1. 10 μl Tris buffer (±Inhibitor) • 2. Add 30 μl of enzyme solution • 3. Start the reaction with 30 μL of mix substrate/ATP/ATP33 • 4. Incubate for 20 min at room temperature • 5. Stop reaction with 30 μL of 50 mM EDTA • 6. Transfer 50 μL of stopped solution to Streptavidin Flash Plate plus, Perkin Elmer, SMP 103A • 7. Incubate for 30 min at RT • 8. Wash 4 times with 300 μl of PBS/0.1% Tween 20 • 9. Radioactivity in the well was determined

T1 sequence (O75116 11-552 limits assumed): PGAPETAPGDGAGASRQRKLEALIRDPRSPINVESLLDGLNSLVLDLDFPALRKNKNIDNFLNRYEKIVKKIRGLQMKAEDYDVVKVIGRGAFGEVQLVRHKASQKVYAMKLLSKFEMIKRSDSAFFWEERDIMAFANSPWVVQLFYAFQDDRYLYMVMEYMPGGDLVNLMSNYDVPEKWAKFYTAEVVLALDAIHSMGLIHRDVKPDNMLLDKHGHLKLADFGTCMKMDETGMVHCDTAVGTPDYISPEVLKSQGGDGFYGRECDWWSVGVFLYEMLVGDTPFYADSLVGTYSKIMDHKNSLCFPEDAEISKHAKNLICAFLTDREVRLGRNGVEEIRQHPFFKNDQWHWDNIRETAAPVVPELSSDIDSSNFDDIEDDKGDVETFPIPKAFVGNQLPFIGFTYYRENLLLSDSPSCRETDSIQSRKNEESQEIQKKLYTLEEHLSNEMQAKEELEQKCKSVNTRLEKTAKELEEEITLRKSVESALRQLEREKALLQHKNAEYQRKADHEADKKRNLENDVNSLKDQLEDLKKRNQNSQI

For `c1ccc(Cc2c(OC3CCNCC3)ccc3cnccc23)cc1` [Compound 29, 5-Benzyl-6-(piperidin-4-yloxy)-isoquinoline], the IC50 entry is “+++ (5.0≦pIC50<6.0)”.
The same measure for `Brc1c(OC2CCNCC2)ccc2cnccc12.Cl` [Compound 41]: “++++ (6.0≦pIC50)”; for `Cl.Ic1c(OC2CCNCC2)ccc2cnccc12` [Compound 44]: “++++ (6.0≦pIC50)”; for `O=C(O)C(F)(F)F.c1ccc2oc(-c3c(OC4CCNCC4)ccc4cnccc34)cc2c1` [Compound 59]: “++++ (6.0≦pIC50)”.
Then `OCc1cccc(-c2c(OC3CCNCC3)ccc3cnccc23)c1` [Compound 67], with “+++ (5.0≦pIC50<6.0)”.
Then `COc1ccc(-c2c(OC3CCNCC3)ccc3cnccc23)cc1N` [Compound 72], with “++++ (6.0≦pIC50)”; and `c1ccc(-c2cc3cnccc3cc2OC2CCNCC2)cc1` [Compound 81], with “++++ (6.0≦pIC50)”; and `O=C(O)C(F)(F)F.c1ccc(C(CN2CCC(Oc3ccc4cnccc4c3)CC2)c2ccccc2)cc1` [Compound 100], with “+++ (5.0≦pIC50<6.0)”.
For `FC(F)(F)CCN1CCC(Oc2ccc3cnccc3c2)CC1.O=C(O)C(F)(F)F` [Compound 111], the IC50 result is given as “+++ (5.0≦pIC50<6.0)”.
The same measure for `COc1ccc2cc(CN3CCC(Oc4ccc5cnccc5c4)CC3)ccc2c1.O=C(O)C(F)(F)F` [Compound 120]: “++++ (6.0≦pIC50)”; for `Cc1cc(OC2CCNCC2)c(C)c2ccncc12.Cl` [Compound 133]: “++++ (6.0≦pIC50)”.
Then `Cc1c(OC2CCNCC2)cc2ccncc2c1C.Cl` [Compound 134], with “+++ (5.0≦pIC50<6.0)”; and `CN1CCCC(COc2ccc3cnccc3c2Br)C1.O=C(O)C(F)(F)F` (stereo not drawn) [Compound 138], with “++++ (6.0≦pIC50)”.
Then `O=C(O)C(F)(F)F.c1cc2cc(OC3CCCNC3)ccc2cn1` (stereo not drawn) [Compound 145], with “+++ (5.0≦pIC50<6.0)”; and `Cl.Clc1cncc2ccc(OC3CCNCC3)cc12` [Compound 156, 4-Chloro-6-(piperidin-4-yloxy)-isoquinoline hydrochloride], with “++++ (6.0≦pIC50)”; and `COc1cc(Nc2cc3cc(OC4CCNCC4)ccc3cn2)cc(OC)c1OC` [Compound 228], with “++++ (6.0≦pIC50)”.
For the compound `Cl.c1cc2c(cc1Nc1cc3cc(OC4CCNCC4)ccc3cn1)OCO2` [Compound 261], the IC50 result was “++++ (6.0≦pIC50)”.
Then `COc1cccc(Nc2cc3c(C4CC4)c(OC4CCNCC4)ccc3cn2)c1.Cl` [Compound 265], with “+++ (5.0≦pIC50<6.0)”.
The same measure for `CCc1cncc2ccc(OC3CCNCC3)cc12.Cl` [Compound 266, 4-Ethyl-6-(piperidin-4-yloxy)-isoquinoline]: “+++ (5.0≦pIC50<6.0)”.
Then `Cl.Clc1cc(OC2CCNCC2)cc2ccncc12` [Compound 269, 8-Chloro-6-(Piperidin-4-yloxy)-isoquinoline hydrochloride], with “++++ (6.0≦pIC50)”; and `Clc1cc2cnccc2c(Cl)c1OC1CCNCC1` [Compound 378, 5,7-Dichloro-6-(piperidin-4-yloxy)-isoquinoline], with “++++ (6.0≦pIC50)”.
